# Tests used:
# Experiment in all cases: kinobeads assay with mass spectrometry detection of kinases (kinase selectivity profile)
# Assay type in all cases: binding
# kinases (kinome) [1] = target: T1, kinases (kinome) (Homo sapiens, UniProt P48736); conditions: PIK3Cg (Lipid Kinase), IPI00292690
# T1 construct: determined in kinobeads assays with mass spectrometry detection of kinases as described previously; endogenous in cells; host or cells: cell lysate
# Text: (§1) The protein kinase complement of the human genome (the kinome) was described previously (Manning et al., 2002. Science 298(5600):1912-1934). Sequence accession numbers are defined by the International Protein Index (IPI) (Kersey et al., 2004. Proteomics 4(7):1985-1988).
# kinases (kinome) [2] = target: T2, kinases (kinome) (Homo sapiens, UniProt P78527); conditions: DNAPK (Atypical), IPI00296337
# T2 construct: determined in kinobeads assays with mass spectrometry detection of kinases as described previously; endogenous in cells; host or cells: cell lysate
# Text: as §1
# kinases (kinome) [3] = target: T3, kinases (kinome) (Homo sapiens, UniProt Q2M2I8); conditions: AAK1 (Other), IPI00916402
# T3 construct: determined in kinobeads assays with mass spectrometry detection of kinases as described previously; endogenous in cells; host or cells: cell lysate
# T3 sequence (Q2M2I8 whole entry): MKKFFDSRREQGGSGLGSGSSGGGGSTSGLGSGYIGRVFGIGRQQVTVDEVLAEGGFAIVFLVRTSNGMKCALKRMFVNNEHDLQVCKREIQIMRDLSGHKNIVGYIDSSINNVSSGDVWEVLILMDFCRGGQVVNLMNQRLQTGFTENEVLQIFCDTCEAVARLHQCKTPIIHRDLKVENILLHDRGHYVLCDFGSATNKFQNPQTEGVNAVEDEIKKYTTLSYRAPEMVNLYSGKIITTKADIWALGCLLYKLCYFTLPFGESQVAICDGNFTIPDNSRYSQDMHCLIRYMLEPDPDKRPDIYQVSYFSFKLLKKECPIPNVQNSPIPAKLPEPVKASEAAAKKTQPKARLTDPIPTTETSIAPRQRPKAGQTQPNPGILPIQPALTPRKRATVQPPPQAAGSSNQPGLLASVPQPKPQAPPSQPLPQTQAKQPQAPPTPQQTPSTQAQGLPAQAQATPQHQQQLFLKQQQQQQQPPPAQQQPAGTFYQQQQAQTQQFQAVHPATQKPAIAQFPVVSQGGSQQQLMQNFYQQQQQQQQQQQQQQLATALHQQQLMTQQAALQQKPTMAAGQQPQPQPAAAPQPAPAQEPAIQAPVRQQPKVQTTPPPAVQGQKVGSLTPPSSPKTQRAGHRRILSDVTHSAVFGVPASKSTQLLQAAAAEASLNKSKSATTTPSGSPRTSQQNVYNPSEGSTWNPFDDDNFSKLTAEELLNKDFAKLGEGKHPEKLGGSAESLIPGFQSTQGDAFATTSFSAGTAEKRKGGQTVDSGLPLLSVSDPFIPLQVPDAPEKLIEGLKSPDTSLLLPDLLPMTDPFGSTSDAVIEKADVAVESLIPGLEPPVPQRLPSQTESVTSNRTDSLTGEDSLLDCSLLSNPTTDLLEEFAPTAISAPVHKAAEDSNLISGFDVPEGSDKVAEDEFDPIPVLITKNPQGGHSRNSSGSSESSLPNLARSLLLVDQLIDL
# Text: as §1
# kinases (kinome) [4] = target: T4, kinases (kinome) (Homo sapiens, UniProt Q13554); conditions: CaMK2b (CAMK), IPI00221305
# T4 construct: determined in kinobeads assays with mass spectrometry detection of kinases as described previously; endogenous in cells; host or cells: cell lysate
# T4 sequence (Q13554 whole entry): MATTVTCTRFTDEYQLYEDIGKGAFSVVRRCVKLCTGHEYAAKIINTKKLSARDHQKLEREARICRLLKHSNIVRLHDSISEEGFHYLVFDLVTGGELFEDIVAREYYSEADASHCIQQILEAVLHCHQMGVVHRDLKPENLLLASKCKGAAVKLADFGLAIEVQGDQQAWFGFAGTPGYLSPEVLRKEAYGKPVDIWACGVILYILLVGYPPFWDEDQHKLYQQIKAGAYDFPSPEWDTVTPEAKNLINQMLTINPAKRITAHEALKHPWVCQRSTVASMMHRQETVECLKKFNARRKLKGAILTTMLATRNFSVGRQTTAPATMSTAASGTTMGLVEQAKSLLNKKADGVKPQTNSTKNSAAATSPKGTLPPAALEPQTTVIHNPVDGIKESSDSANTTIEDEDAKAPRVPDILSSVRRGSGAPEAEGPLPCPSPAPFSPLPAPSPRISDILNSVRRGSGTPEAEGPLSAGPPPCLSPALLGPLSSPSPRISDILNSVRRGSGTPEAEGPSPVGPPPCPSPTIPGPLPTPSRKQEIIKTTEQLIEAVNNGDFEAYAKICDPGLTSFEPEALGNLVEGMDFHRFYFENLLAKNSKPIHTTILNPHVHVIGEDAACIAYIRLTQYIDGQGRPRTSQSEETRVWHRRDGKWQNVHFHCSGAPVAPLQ
# Text: as §1
# kinases (kinome) [5] = target: T5, kinases (kinome) (Homo sapiens, UniProt Q13557); conditions: CaMK2d (CAMK), IPI00828081
# T5 construct: determined in kinobeads assays with mass spectrometry detection of kinases as described previously; endogenous in cells; host or cells: cell lysate
# T5 sequence (Q13557 whole entry): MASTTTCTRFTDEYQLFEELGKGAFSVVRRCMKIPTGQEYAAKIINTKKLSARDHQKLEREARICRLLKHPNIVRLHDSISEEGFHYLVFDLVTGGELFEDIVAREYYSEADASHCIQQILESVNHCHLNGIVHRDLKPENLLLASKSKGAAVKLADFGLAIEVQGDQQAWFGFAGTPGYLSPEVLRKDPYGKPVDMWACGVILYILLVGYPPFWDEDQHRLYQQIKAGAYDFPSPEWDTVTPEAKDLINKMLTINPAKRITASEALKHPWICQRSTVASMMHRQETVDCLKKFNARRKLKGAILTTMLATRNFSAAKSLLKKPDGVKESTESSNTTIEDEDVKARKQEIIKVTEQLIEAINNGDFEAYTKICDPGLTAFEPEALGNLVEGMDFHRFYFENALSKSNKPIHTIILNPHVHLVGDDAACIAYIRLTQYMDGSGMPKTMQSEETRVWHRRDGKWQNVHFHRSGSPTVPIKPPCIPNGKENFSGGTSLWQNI
# Text: as §1
# kinases (kinome) [6] = target: T6, kinases (kinome) (Homo sapiens, UniProt Q9BQI3); conditions: HRI (Other), IPI00328149
# T6 construct: determined in kinobeads assays with mass spectrometry detection of kinases as described previously; endogenous in cells; host or cells: cell lysate
# T6 sequence (Q9BQI3 whole entry): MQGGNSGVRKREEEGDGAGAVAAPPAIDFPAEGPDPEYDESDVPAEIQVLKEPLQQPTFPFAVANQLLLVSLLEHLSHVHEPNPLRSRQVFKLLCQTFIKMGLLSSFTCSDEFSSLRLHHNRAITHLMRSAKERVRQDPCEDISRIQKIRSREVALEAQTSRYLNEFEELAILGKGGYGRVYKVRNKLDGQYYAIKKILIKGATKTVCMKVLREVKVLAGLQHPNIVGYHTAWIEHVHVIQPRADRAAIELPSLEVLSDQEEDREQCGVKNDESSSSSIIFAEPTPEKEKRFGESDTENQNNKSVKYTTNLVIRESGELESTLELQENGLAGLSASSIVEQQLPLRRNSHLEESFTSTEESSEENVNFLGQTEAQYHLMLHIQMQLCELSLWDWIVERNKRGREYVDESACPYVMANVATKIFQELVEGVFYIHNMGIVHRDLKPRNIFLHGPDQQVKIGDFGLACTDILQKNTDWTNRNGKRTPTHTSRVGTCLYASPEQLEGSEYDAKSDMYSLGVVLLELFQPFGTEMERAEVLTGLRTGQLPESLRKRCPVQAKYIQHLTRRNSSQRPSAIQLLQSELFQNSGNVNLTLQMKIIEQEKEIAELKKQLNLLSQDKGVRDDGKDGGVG
# Text: as §1
# kinases (kinome) [7] = target: T7, kinases (kinome) (Homo sapiens, UniProt O00329); conditions: PIK3Cd (Lipid Kinase), IPI00384817
# T7 construct: determined in kinobeads assays with mass spectrometry detection of kinases as described previously; endogenous in cells; host or cells: cell lysate
# T7 sequence (O00329 1-1044): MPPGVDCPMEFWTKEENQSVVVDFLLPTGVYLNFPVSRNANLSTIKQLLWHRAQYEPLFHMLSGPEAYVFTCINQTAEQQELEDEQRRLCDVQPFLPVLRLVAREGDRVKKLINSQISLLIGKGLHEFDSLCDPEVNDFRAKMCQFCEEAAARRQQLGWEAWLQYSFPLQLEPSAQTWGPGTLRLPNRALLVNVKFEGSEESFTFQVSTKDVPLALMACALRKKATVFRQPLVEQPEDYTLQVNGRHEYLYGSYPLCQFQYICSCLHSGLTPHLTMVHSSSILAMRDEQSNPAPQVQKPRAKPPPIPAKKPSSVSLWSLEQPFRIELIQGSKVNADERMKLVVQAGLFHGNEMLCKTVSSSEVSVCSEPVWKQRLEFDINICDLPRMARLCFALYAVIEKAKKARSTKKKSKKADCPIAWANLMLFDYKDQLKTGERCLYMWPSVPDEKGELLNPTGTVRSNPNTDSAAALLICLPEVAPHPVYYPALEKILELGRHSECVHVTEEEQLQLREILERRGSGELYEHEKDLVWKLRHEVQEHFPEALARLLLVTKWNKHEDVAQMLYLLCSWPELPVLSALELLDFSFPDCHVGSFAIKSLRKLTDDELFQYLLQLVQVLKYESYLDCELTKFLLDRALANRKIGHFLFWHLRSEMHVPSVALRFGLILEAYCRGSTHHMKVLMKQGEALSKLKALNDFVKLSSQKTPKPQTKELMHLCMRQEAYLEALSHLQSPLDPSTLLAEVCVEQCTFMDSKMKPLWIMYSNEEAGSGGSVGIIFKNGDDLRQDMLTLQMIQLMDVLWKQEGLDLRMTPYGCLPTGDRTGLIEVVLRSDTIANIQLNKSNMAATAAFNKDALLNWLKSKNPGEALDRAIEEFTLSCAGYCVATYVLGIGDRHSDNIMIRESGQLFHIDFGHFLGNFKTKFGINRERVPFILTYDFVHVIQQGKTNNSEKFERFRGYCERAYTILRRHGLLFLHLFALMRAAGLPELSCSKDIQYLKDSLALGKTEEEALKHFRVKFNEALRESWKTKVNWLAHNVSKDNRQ
# Text: as §1
# kinases (kinome) [8] = target: T8, kinases (kinome) (Homo sapiens, UniProt P06239); conditions: LCK (TK), IPI00515097
# T8 construct: determined in kinobeads assays with mass spectrometry detection of kinases as described previously; endogenous in cells; host or cells: cell lysate
# T8 sequence (P06239 whole entry): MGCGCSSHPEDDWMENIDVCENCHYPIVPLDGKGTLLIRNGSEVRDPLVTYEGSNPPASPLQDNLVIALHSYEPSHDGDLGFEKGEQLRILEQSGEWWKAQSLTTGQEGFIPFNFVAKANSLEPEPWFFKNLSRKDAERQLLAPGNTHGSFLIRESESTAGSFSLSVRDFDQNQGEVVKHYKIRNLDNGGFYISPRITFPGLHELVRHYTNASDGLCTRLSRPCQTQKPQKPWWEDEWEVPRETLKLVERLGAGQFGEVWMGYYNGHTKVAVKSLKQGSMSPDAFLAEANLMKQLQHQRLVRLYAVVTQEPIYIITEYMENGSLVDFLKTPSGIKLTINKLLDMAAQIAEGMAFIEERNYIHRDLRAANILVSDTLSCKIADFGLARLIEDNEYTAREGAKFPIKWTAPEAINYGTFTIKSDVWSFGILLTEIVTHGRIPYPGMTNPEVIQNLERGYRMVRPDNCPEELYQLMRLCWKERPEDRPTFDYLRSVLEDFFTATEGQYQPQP
# Text: as §1
# kinases (kinome) [9] = target: T9, kinases (kinome) (Homo sapiens, UniProt P27448); conditions: MARK3 (CAMK), IPI00183118
# T9 construct: determined in kinobeads assays with mass spectrometry detection of kinases as described previously; endogenous in cells; host or cells: cell lysate
# T9 sequence (P27448 whole entry): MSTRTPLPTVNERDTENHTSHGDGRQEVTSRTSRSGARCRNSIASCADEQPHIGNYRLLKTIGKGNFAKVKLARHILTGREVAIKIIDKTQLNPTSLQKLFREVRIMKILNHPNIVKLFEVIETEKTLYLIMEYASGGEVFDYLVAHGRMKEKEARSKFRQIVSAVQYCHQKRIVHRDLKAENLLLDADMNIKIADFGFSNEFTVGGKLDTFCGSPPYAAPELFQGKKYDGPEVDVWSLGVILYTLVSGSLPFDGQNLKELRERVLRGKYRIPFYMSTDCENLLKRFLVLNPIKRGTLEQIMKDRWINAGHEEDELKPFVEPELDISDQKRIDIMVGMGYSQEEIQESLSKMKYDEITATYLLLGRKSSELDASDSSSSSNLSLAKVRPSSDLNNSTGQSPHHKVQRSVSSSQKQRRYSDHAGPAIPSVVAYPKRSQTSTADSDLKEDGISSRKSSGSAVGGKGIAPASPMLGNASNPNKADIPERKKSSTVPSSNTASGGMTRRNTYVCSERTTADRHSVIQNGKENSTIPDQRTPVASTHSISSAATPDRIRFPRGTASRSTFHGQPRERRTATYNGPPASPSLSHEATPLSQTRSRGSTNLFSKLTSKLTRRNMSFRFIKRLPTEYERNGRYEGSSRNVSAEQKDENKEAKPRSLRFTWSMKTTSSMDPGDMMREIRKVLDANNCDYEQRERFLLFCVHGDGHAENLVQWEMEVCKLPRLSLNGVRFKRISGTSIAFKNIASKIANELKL
# Text: as §1
# kinases (kinome) [10] = target: T10, kinases (kinome) (Homo sapiens, UniProt Q9H2K8); conditions: TAO3 (STE), IPI00410485
# T10 construct: determined in kinobeads assays with mass spectrometry detection of kinases as described previously; endogenous in cells; host or cells: cell lysate
# T10 sequence (Q9H2K8 1-898): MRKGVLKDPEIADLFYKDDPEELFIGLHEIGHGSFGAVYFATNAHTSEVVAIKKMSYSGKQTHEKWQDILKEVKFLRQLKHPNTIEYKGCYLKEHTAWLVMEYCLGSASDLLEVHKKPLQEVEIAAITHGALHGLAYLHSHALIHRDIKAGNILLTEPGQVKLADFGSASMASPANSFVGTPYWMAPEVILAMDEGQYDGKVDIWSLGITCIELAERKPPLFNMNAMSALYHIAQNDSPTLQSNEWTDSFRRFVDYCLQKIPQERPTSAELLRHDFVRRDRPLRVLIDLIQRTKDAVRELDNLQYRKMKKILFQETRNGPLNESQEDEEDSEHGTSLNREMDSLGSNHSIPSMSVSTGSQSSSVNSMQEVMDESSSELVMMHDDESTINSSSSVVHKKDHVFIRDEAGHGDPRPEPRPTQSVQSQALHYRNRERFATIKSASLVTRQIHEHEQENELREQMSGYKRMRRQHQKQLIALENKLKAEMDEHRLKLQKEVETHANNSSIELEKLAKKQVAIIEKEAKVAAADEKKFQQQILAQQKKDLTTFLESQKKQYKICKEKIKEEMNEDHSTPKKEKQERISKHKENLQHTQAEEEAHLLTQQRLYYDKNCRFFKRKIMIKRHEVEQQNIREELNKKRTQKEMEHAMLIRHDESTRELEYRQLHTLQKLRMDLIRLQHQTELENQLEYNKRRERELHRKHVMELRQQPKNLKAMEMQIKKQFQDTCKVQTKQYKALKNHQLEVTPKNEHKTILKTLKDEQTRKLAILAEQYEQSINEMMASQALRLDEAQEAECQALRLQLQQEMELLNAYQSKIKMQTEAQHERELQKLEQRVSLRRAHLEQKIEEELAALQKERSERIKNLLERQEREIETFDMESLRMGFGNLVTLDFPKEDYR
# Text: as §1
# kinases (kinome) [11] = target: T11, kinases (kinome) (Homo sapiens, UniProt P49840); conditions: GSK3A (CMGC), IPI00292228
# T11 construct: determined in kinobeads assays with mass spectrometry detection of kinases as described previously; endogenous in cells; host or cells: cell lysate
# T11 sequence (P49840 whole entry): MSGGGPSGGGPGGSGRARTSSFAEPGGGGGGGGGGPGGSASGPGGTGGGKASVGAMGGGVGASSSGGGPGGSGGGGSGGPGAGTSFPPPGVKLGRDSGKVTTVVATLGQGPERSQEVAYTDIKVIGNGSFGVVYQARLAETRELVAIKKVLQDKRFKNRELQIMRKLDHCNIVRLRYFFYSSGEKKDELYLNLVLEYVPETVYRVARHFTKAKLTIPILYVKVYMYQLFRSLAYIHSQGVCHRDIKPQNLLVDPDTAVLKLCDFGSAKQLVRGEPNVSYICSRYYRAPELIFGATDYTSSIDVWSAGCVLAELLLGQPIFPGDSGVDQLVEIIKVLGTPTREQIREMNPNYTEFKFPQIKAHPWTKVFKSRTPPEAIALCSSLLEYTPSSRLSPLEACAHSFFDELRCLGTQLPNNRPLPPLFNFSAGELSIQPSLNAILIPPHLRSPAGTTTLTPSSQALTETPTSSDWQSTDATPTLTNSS
# Text: as §1
IC50 (kinases (kinome) [1]) [µM],IC50 (kinases (kinome) [2]) [µM],IC50 (kinases (kinome) [3]) [µM],IC50 (kinases (kinome) [4]) [µM],IC50 (kinases (kinome) [5]) [µM],IC50 (kinases (kinome) [6]) [µM],IC50 (kinases (kinome) [7]) [µM],IC50 (kinases (kinome) [8]) [µM],IC50 (kinases (kinome) [9]) [µM],IC50 (kinases (kinome) [10]) [µM],IC50 (kinases (kinome) [11]) [µM],SMILES
> 10,> 10,> 10,> 10,> 10,> 10,> 10,> 10,> 10,> 10,> 10,"C[C@H]1COCCN1c1nc(-c2ccc(NC(=O)NC3CC3)cc2)cc(-c2cccnc2S(C)(=O)=O)n1 [Example 46, (S)-1-cyclopropyl-3-(4-(2-(3-methylmorpholino)-6-(2-(methylsulfonyl)pyridin-3-yl)pyrimidin-4-yl)phenyl)urea]"
> 10,> 10,> 10,,> 10,> 10,> 10,> 10,> 10,> 10,> 10,"C[C@H]1COCCN1c1nc(-c2ccc(NC(=O)NC3CC3)cc2)cc(-c2ccccc2S(C)(=O)=O)n1 [Example 4, (S)-1-cyclopropyl-3-(4-(2-(3-methylmorpholino)-6-(2-(methylsulfonyl)phenyl)pyrimidin-4-yl)phenyl)urea]"
> 10,> 10,> 10,> 10,> 10,> 10,> 10,> 10,> 10,> 10,> 10,"C[C@H]1COCCN1c1nc(-c2ccc(NC(=O)NC3CC3)cc2)cc(-c2cc(F)ccc2S(C)(=O)=O)n1 [Example 40, (S)-1-cyclopropyl-3-(4-(6-(5-fluoro-2-(methylsulfonyl)phenyl)-2-(3-methylmorpholino)pyrimidin-4-yl)phenyl)urea]"
> 10,> 10,> 10,> 10,> 10,> 10,> 10,> 10,> 10,> 10,> 10,"C[C@H]1COCCN1c1nc(-c2ccc(NC(=O)N[C@H]3CCC[C@@H]3O)cc2)cc(-c2cc(F)ccc2S(C)(=O)=O)n1 [Example 76, 1-(4-(6-(5-fluoro-2-(methylsulfonyl)phenyl)-2-((S)-3-methylmorpholino)pyrimidin-4-yl)phenyl)-3-((1S,2S)-2-hydroxycyclopentyl)urea]"
> 10,> 10,> 10,> 10,> 10,> 10,> 10,> 10,> 10,> 10,> 10,"C[C@H]1COCCN1c1cc(-c2ccccn2)nc(-c2ccc(NC(=O)NCCO)cc2)n1 [Example 43, (S)-1-(2-hydroxyethyl)-3-(4-(4-(3-methylmorpholino)-6-(pyridin-2-yl)pyrimidin-2-yl)phenyl)urea]"
> 10,> 10,> 10,> 10,> 10,,> 10,> 10,> 10,> 10,> 10,"C[C@H]1COCCN1c1cc(-c2ccccc2S(C)(=O)=O)nc(-c2ccc(NC(=O)NC3CC3)cc2)n1 [Example 6, (S)-1-cyclopropyl-3-(4-(4-(3-methylmorpholino)-6-(2-(methylsulfonyl)phenyl)pyrimidin-2-yl)phenyl)urea]"
> 10,> 10,> 10,> 10,> 10,> 10,> 10,,> 10,> 10,> 10,"CCNC(=O)Nc1ccc(-c2cc(-c3ccccc3C#N)nc(N3CCOC[C@@H]3C)n2)cc1 [Example 8, (S)-1-(4-(6-(2-cyanophenyl)-2-(3-methylmorpholino)pyrimidin-4-yl)phenyl)-3-ethylurea]"
